Read-outs that look alike come from different tables or passages of the source.
Experiments:
Influenza virus [1] = experiment: Effect of drugs on viral cytopathic effect, effective antiviral rate (ER%); assay type: cell-based
Parainfluenza virus = experiment: as above; assay type: cell-based; settings: Vero cells, 100TCID50, drug at maximum non-toxic concentration, 72 h, MTT
[2] = test system: Herpes simplex virus type 1 (HSV-1); experiment: as above; assay type: cell-based; settings: Vero cells, 100TCID50, drug at maximum non-toxic concentration, 72 h, MTT
Adenovirus (AdV) = experiment: as above; assay type: cell-based; settings: Vero cells, 100TCID50, drug at maximum non-toxic concentration, 72 h, MTT
Coxsackievirus B3 (CVB3) = experiment: as above; assay type: cell-based; settings: Vero cells, 100TCID50, drug at maximum non-toxic concentration, 72 h, MTT
influenza virus [3] = assay type: in vivo, Kunming mice; settings: for Lung index (x̅ ±S) / Lung index Inhibitory rate (%): 13.0 mg/kg/day by gavage, 5 days
influenza virus [4] = assay type: in vivo, Kunming mice; settings: 13.0 mg/kg/day by gavage, 5 days
[5] = test system: sweat secretion of rat paw; experiment: Sweat secretion of rat paw (staining method); assay type: in vivo, Wistar rats; settings: of 10 rats; dose not printed, gavage
Description: There are sweat glands on the plantar skin of rats, so the changes in sweat secretion can be observed by the purple reaction between the iodine-starch mixture and the sweat. Five hundred Wistar rats, half male and half female, weighing 120-150 g, were taken in the study. […] The rats were placed in a homemade rat-fixing bag to expose both hind limbs. The dirt on the right paw was gently scrubbed with a cotton swab dipped in absolute ethanol. Except for the pilocarpine solution, which was given by subcutaneous injection, other groups were administered by gavage. One hour after administration (30 min after administration in the pilocarpine group), the sweat secreted from the right paw of rats in each group was gently cleaned with a dry cotton swab before the study and during struggling. The right paw was coated with Wotan-[…] reagent A solution (dissolve 2 g of iodine in 100 mL of absolute ethanol) and then coated with Wotan-[…] reagent B solution (mix 50 g of soluble starch and 100 mL of Ricinus conununis oil well) after reagent A was fully absorbed. […] At the end of the test, a rank-sum test was used to analyze the differences among the groups.

[6] = test system: fever induced by beer yeast; experiment: Fever induced by beer yeast in rats; assay type: in vivo, Wistar rats; settings: 10 mg/kg; for Body temperature change (%) (antipyretic percentage), time post-dose 1 h / Body temperature, time post-dose 1 h: 1 h post-dose; for Body temperature change (%) (antipyretic percentage), time post-dose 2 h / Body temperature, time post-dose 2 h: 2 h post-dose; for Body temperature change (%) (antipyretic percentage), time post-dose 3 h / Body temperature, time post-dose 3 h: 3 h post-dose; for Body temperature change (%) (antipyretic percentage), time post-dose 4 h / Body temperature, time post-dose 4 h: 4 h post-dose
[7] = test system: carrageenan-induced paw swelling; experiment: Carrageenan-induced paw swelling in rats; assay type: in vivo, Wistar rats; settings: sublingual intravenous injection; for Swelling rate (%) 15 min: 15 min after inflammation induction; for Swelling rate (%) 30 min: 30 min after inflammation induction; for Swelling rate (%) 60 min: 60 min after inflammation induction; for Swelling rate (%) 120 min: 120 min after inflammation induction; for Swelling rate (%) 180 min: 180 min after inflammation induction; for Swelling rate (%) 240 min: 240 min after inflammation induction; for Swelling rate (%) 300 min: 300 min after inflammation induction; for Swelling rate (%) 360 min: 360 min after inflammation induction
Method: Each group was administered by sublingual intravenous injection. Before the study, the normal volume of the right hind limb was measured by the capillary magnification method. To avoid errors, the measurement position should be fixed and performed by one person before and after administration. The average of the two measurements was taken as the normal volume of the right hind limb of the rats prior to administration. […] The inter-group t-test was performed by the difference percentage (swelling rate) of the plantar volume before and after the inflammation induction, and the differences among the groups were compared.

[8] = test system: mouse splenic lymphocytes; experiment: ConA-induced mouse splenic lymphocyte transformation test; assay type: in vivo, Kunming mice; settings: 144 mg/kg; gavage once daily for 30 days; mice; ABSa-ABSb at 570 nm
Method: One hundred and fifty-two healthy male mice were subjected to acclimation for 4 days before they were randomly divided into 19 groups: the negative control group, positive control group, forsythin group, 20(R)-ginsenoside Rg3 group, high, middle and low dose groups of panax ginseng-forsythia suspensa composition. […] The drugs were given by gavage, once daily for 30 days, and the negative control group was given the same volume of water. At 1 h after the last dose, the spleens of animals of each group were aseptically excised to prepare splenocyte suspension. After diluting the splenocyte suspension to a concentration of 3×10^6 cells/mL, the splenocyte suspension was divided into 2 aliquots.Each of the aliquot was transferred into two 24-well culture plates at a volume of 1 mL/well followed by addition of 75 µL of ConA solution (a) was added to one well, and the other well was used as control (b). The wells were cultured at 37° C. for 72 h. Then, thiazolyl blue (MTT) was added 4 h before the end of the culture. After incubation, acidic isopropanol was added, and the absorbance (ABS) of each solution was measured at 570 nm after it was mixed well. The proliferativity was calculated using the formula: proliferativity = ABSa-ABSb. Each dose group of the test sample was compared with the negative control group.

[9] = test system: NK cells (YAC-1 target cells); experiment: Determination of NK cell viability; assay type: in vivo, Kunming mice; settings: 144 mg/kg; gavage once daily for 30 days; mice
Description: One hundred and fifty-two healthy male mice were subjected to acclimation for 4 days before they were randomly divided into 19 groups: the negative control group, positive control group, forsythin group, 20(R)-ginsenoside Rg3 group, high, middle and low dose groups of panax ginseng-forsythia suspensa composition. […] The drugs were given by gavage, once daily for 30 days, and the negative control group was given the same volume of water. One hour after the last dose, the spleens of animals of each group were aseptically excised to prepare splenocyte suspension. […] Then, the concentration of splenocyte suspension was adjusted to 2×10^7 cells/mL. and the splenocyte suspension was added into a 96-well plate for culturing. […] A triplicate set of tubes was prepared for each of the above items. The 96-well plate was incubated at 37° C. in a 5% CO2 incubator for 4 h. After adding LDH matrix solution and 1 moL/L HCl, the solutions in each parallel well were combined, and the absorbance (ABS) was measured at 490 nm. The NK cell viability was calculated: NK cell viability (%) = (ABS reaction well -ABS natural release well)/(ABS maximum release well -ABS natural release well).

Vero cells = experiment: Cytotoxicity test of drugs on Vero cells (MTT); settings: 72 h
[10] = mice infected with influenza virus
[11] = lung suspension, mice infected with influenza virus

CC(C)=CCC[C@](C)(O)[C@H]1CC[C@]2(C)[C@@H]1[C@H](O)C[C@@H]1[C@@]3(C)CC[C@H](O[C@@H]4O[C@H](CO)[C@@H](O)[C@H](O)[C@H]4O[C@@H]4O[C@H](CO)[C@@H](O)[C@H](O)[C@H]4O)C(C)(C)[C@@H]3CC[C@]12C [20(R)-Ginsenoside Rg3, 20(R)-ginsenoside Rg3]
Effective Antiviral Rates (ER%) Influenza virus (Influenza virus [1]): 74.06^∗∗ % | Effective Antiviral Rates (ER%) Parainfluenza virus (Parainfluenza virus): 82.21^∗∗ % | Effective Antiviral Rates (ER%) HSV-I [2]: 83.61^∗∗ % | Effective Antiviral Rates (ER%) ADV (Adenovirus (AdV)): 51.07% | Effective Antiviral Rates (ER%) CVB3 (Coxsackievirus B3 (CVB3)): 53.75% | Lung index (x̅ ±S) (influenza virus [3]; […]): 1.302±0.046 | Lung index Inhibitory rate (%) (influenza virus [3]; […]): 12.51% | Lung index compared with the infection model group, in words (influenza virus [3]; mouse, in vivo): decreased significantly | Hemagglutinin titer (InX) (influenza virus [4]; […]): 22.61±1.059 | Inhibitory rate (%) of hemagglutination titer (influenza virus [4]; […]): 30.22% | Number of animals with sweat spots of each grade at 1 min after application of solution B: grade + [5]: 1 animals | Number of animals with sweat spots of each grade at 1 min after application of solution B: grade ++ [5]: 3 animals | Number of animals with sweat spots of each grade at 1 min after application of solution B: grade +++ [5]: 3 animals | Number of animals with sweat spots of each grade at 1 min after application of solution B: grade +++ (fifth grade column) [5]: 3 animals | Number of animals with sweat spots of each grade at 1 min after application of solution B: grade - [5]: 0 animals | Number of animals with sweat spots of each grade at 5 min after application of solution B: grade + [5]: 1 animals | Number of animals with sweat spots of each grade at 5 min after application of solution B: grade ++ [5]: 3 animals | Number of animals with sweat spots of each grade at 5 min after application of solution B: grade +++ [5]: 2 animals | Number of animals with sweat spots of each grade at 5 min after application of solution B: grade +++ (fifth grade column) [5]: 4 animals | Number of animals with sweat spots of each grade at 5 min after application of solution B: grade - [5]: 0 animals | Body temperature change (%) (antipyretic percentage), time post-dose 1 h [6]: -0.3±0.41% | Body temperature, time post-dose 1 h [6]: 39.31±0.48 °C | Body temperature change (%) (antipyretic percentage), time post-dose 2 h [6]: -0.69±0.93^∗ % | Body temperature, time post-dose 2 h [6]: 39.04±0.45 °C | Body temperature change (%) (antipyretic percentage), time post-dose 3 h [6]: -1.03±1.18^∗ % | Body temperature, time post-dose 3 h [6]: 38.91±0.40 °C | Body temperature change (%) (antipyretic percentage), time post-dose 4 h [6]: -1.55±1.23^∗ % | Body temperature, time post-dose 4 h [6]: 38.70±0.31 °C | Swelling rate (%) 15 min ([7]; 2.5 mg/kg): 14.8±8.74% | Swelling rate (%) 30 min ([7]; 2.5 mg/kg): 18.9±12.1% | Swelling rate (%) 60 min ([7]; 2.5 mg/kg): 23.5±13.3^∗▲▲ % | Swelling rate (%) 120 min ([7]; 2.5 mg/kg): 28.9±14.2^∗∗Δ▲ % | Swelling rate (%) 180 min ([7]; 2.5 mg/kg): 31.8±14.8^∗∗Δ▲ % | Swelling rate (%) 240 min ([7]; 2.5 mg/kg): 33.1±18.3^∗∗Δ▲ % | Swelling rate (%) 300 min ([7]; 2.5 mg/kg): 34.9±19.6^∗∗Δ▲ % | Swelling rate (%) 360 min ([7]; 2.5 mg/kg): 37.8±18.3^∗▲▲ % | Swelling rate (%) 15 min ([7]; 10.0 mg/kg): 14.9±6.13% | Swelling rate (%) 30 min ([7]; 10.0 mg/kg): 21.9±9.72% | Swelling rate (%) 60 min ([7]; 10.0 mg/kg): 27.1±13.5% | Swelling rate (%) 120 min ([7]; 10.0 mg/kg): 30.7±10.2^∗ % | Swelling rate (%) 180 min ([7]; 10.0 mg/kg): 33.8±12.1^∗ % | Swelling rate (%) 240 min ([7]; 10.0 mg/kg): 31.0±11.3^∗ % | Swelling rate (%) 300 min ([7]; 10.0 mg/kg): 35.8±13.5^∗ % | Swelling rate (%) 360 min ([7]; 10.0 mg/kg): 36.4±10.2% | Proliferation ability (×10^-2) [8]: 23.9±11.70 ×10^-2 | NK cell viability (%) [9]: 37.34±7.21% | Half toxic concentration (TC50) (Vero cells): 0.31 g/L | Maximum non-toxic concentration (TC0) (Vero cells): 0.0048 g/L

COc1ccc([C@H]2OCC3C2CO[C@H]3c2ccc(O[C@@H]3OC(CO)[C@@H](O)[C@H](O)C3O)c(OC)c2)cc1OC (stereo partly drawn) [Forsythin]
Effective Antiviral Rates (ER%) Influenza virus (Influenza virus [1]; Vero cells, 100TCID50, drug at maximum non-toxic concentration, 72 h, MTT): 75.38^∗∗ % | Effective Antiviral Rates (ER%) Parainfluenza virus (Parainfluenza virus): 84.96^∗∗ % | Effective Antiviral Rates (ER%) HSV-I [2]: 85.00^∗∗ % | Effective Antiviral Rates (ER%) ADV (Adenovirus (AdV)): 75.14^∗∗ % | Effective Antiviral Rates (ER%) CVB3 (Coxsackievirus B3 (CVB3)): 75.27^∗∗ % | Lung index (x̅ ±S) (influenza virus [3]; [10]): 1.280±0.040 | Lung index Inhibitory rate (%) (influenza virus [3]; [10]): 14.00% | Hemagglutinin titer (InX) (influenza virus [4]; [11]): 22.06±1.120 | Inhibitory rate (%) of hemagglutination titer (influenza virus [4]; [11]): 31.90% | Number of animals with sweat spots of each grade at 1 min after application of solution B: grade + [5]: 2 animals | Number of animals with sweat spots of each grade at 1 min after application of solution B: grade ++ [5]: 2 animals | Number of animals with sweat spots of each grade at 1 min after application of solution B: grade +++ [5]: 2 animals | Number of animals with sweat spots of each grade at 1 min after application of solution B: grade +++ (fifth grade column) [5]: 4 animals | Number of animals with sweat spots of each grade at 1 min after application of solution B: grade - [5]: 0 animals | Number of animals with sweat spots of each grade at 5 min after application of solution B: grade + [5]: 1 animals | Number of animals with sweat spots of each grade at 5 min after application of solution B: grade ++ [5]: 2 animals | Number of animals with sweat spots of each grade at 5 min after application of solution B: grade +++ [5]: 2 animals | Number of animals with sweat spots of each grade at 5 min after application of solution B: grade +++ (fifth grade column) [5]: 5 animals | Number of animals with sweat spots of each grade at 5 min after application of solution B: grade - [5]: 0 animals | Body temperature change (%) (antipyretic percentage), time post-dose 1 h [6]: -0.60±0.39% | Body temperature, time post-dose 1 h [6]: 39.13±0.52 °C | Body temperature change (%) (antipyretic percentage), time post-dose 2 h [6]: -0.92±0.93^∗∗ % | Body temperature, time post-dose 2 h [6]: 38.77±0.42 °C | Body temperature change (%) (antipyretic percentage), time post-dose 3 h [6]: -1.29±1.18^∗ % | Body temperature, time post-dose 3 h [6]: 38.63±0.40 °C | Body temperature change (%) (antipyretic percentage), time post-dose 4 h [6]: -1.70±1.23^∗ % | Body temperature, time post-dose 4 h [6]: 38.46±0.31 °C | Swelling rate (%) 15 min ([7]; 10.0 mg/kg): 12.9±8.41% | Swelling rate (%) 30 min ([7]; 10.0 mg/kg): 19.9±9.55% | Swelling rate (%) 60 min ([7]; 10.0 mg/kg): 21.8±11.8 % | Swelling rate (%) 120 min ([7]; 10.0 mg/kg): 28.9±14.0^∗ % | Swelling rate (%) 180 min ([7]; 10.0 mg/kg): 30.8±15.4^∗ % | Swelling rate (%) 240 min ([7]; 10.0 mg/kg): 29.9±11.1^∗ % | Swelling rate (%) 300 min ([7]; 10.0 mg/kg): 33.5±10.0^∗ % | Swelling rate (%) 360 min ([7]; 10.0 mg/kg): 32.2±11.9^∗ % | Proliferation ability (×10^-2) [8]: 28.66±12.63 ×10^-2 | NK cell viability (%) [9]: 41.86±7.24% | Half toxic concentration (TC50) (Vero cells): 0.55 g/L | Maximum non-toxic concentration (TC0) (Vero cells): 0.0066 g/L
